Experimental data published in patent EP0714404B1, “ANTI-INFLAMMATORY PEPTIDES” (CURATIVE TECHNOLOGIES, INC., priority 1993, dated 1995).
Read-outs that look alike come from different tables or passages of the source. Residues, ends and D or L forms follow the SMILES beside them.

How the values were obtained:
neutrophils [1] = assay: neutrophil chemotaxis to f-Met-Leu-Phe (Neuroprobe chambers); type: cell-based; conditions: fluorescence at 530 nm, 1 hr; FIGURE 3
Description: The ability of CT-112 (SEQ. ID NO: 1) to inhibit chemotaxis of neutrophils in response to a variety of agents was assessed using Neuroprobe chemotaxis chambers. For these assays, neutrophils were resuspended in Hank's balanced salt solution with Ca^2+ and Mg^2+ to give a 5 x 10^6 cells/ml suspension after the cells were labeled with 1',7'-bis(2-carboxyethyl)-5-(6)-carboxyfluorescein. The neutrophils were exposed to CT-112 (SEQ. ID NO: 1) for approximately 15 min prior to addition to the chemotaxis chambers. CT-112 (SEQ. ID NO: 1) was present in both the top and bottom of the chambers, and the chemoattractant, either f-Met-Leu-Phe, leukotriene B4 or interleukin-8, was added to the bottom of chamber. Cells which had migrated through the membrane were determined by fluorescence at 530 nm at 1 hr after initiation of the assay.

leukotriene B4 (LTB4) = assay: carrageenan peritonitis, LTB4 content of peritoneal lavage fluid; type: in vivo, Mice; conditions: 60 mg/kg/day; 24 hr post-challenge
Description: (§1) Mice (C57BL/6UAF, females, 12 weeks old) were implanted with Alzet mini pumps set to deliver 60 mg CT-112/kg/day. Six days post-implantation, the mice were challenged with an intraperitoneal injection of 0.3 ml of carrageenan in PBS (10 mg/ml). The peritoneal cavity was lavaged with 15 ml of Hank's Balanced Salt Solution (Ca^2+- and Mg^2+-free) at 24, 48 and 72 hr post-challenge. The lavage fluid was centrifuged (500 g, 5 min), fixed with LeukoStat fixative and stained with LeukoStat staining solution. The slides were analyzed under a microscope for the different types of inflammatory cells, such as macrophages, lymphocytes and neutrophils. At the 48-hr time point, 5 control mice were also lavaged.
(§2) In a separate study, the peritoneal lavage fluid was analyzed for total leukotriene B4 (LTB4) and prostaglandin E2 (PGE2) content at 24 hr post-challenge (Griswold et al., 1991, Biochem. Pharmacol. 42(4):825-831).

[2] = test system: Delayed Type Hypersensitivity; type: in vivo, mice
Description: CT-112 (SEQ. ID NO: 1) was tested for its ability to modulate the immune response in a mouse model of delayed hypersensitivity (Filipp et al., 1984, Allergy, 39: 499-507; Diezel et al., 1989 J. Invest. Dermatol. 93:322-326). The mice used in this study were 8-wk old hairless females (Jackson Laboratories). The mice were sensitized to a contact allergen (1-chloro-2,4-dinitrobenzene, DNCB) by painting the dorsothoracic region twice daily for 5 consecutive days with 50 µl of 0.5% DNCB in 75% acetone:25% vegetable oil. The animals were allowed to rest for 24 hr prior to challenge with DNCB. On the sixth day after initiation of the sensitization treatments, the animals were challenged with 50 µl of DNCB solution applied to the left ear. After 24 hrs, the ear thickness was determined and compared to the unchallenged ear.
The treatment groups were as follows: • a) PBS control; • b) Prednisone (intraperitoneal injection of 25 mg/kg, 2 hr prior to challenge); • c) 7-day pump (60 mg CT-112/kg/24 hr); • d) CT-112 (intraperitoneal injections of 60 mg/kg/injection at 3, 1, and 0.25 hr prior to challenge and 3, 6 and 21 hr post-challenge); • e) DMSO control (topical application of 50 µl at 3, 1 and 0.25 hr prior to challenge; and • f) CT-112 in DMSO (20 mg/ml, topical application of 50 µl at 3, 1, and 0.25 hr prior to challenge and 3, 6 and 21 hr post-challenge).

neutrophils [3] = assay: neutrophil viability, trypan blue exclusion; type: cell-based; conditions: FIGURE 3
Text: In addition, CT-112 (SEQ. ID NO: 1) was not cytotoxic to neutrophils, as determined by viability testing using trypan blue exclusion (FIGURE 3).

[4] = test system: mouse bone marrow polychromatic erythrocyte; assay: mouse bone marrow polychromatic erythrocyte micronucleus assay; type: in vivo; conditions: 62.5, 125 and 250 mg/kg; after 24, 48 or 72 hr
acute toxicity in rats = type: in vivo; conditions: rats, 100, 500 or 1,000 mg/kg
Description: Rats were dosed with CT-112 (SEQ. ID NO: 1) at 100, 500 or 1,000 mg/kg. […] All rats returned to normal appearance the day after treatment.

[5] = test system: Arachidonic Acid Induced Myeloperoxidase Activity in Mouse Ear; assay: myeloperoxidase activity in AA-treated mouse ear tissue (marker for PMNs); type: in vivo, mice; conditions: minipump
Description: Myeloperoxidase activity in ear tissue was measured as a marker for the presence or absence of polymorphonuclear leukocytes (PMNs) (Barone et al., 1991, J. Neurosci. Res. 29:336-345). After measurement of ear thickness, ears were dissected from the mice and homogenized in 50mM Tris-HCL, pH 7.4 at 4°C to give a 10% (w/v) homogenate. Aliquots of the homogenate were used to determine the amount of myeloperoxidase activity present in the tissue using o-dianisidine (Sigma Chem Co., St. Louis MO) and hydrogen peroxide as substrates and monitoring chromophore generation at 460 nm (Barone et al., 1991, J. Neurosci. Res. 29:336-345).

prostaglandin E2 (PGE2) = assay: carrageenan peritonitis, PGE2 content of peritoneal lavage fluid; type: in vivo, Mice; conditions: 60 mg/kg/day; 24 hr post-challenge
Description: as §1, §2

For `CC(C)[C@H](NC(=O)[C@H](CCC(N)=O)NC(=O)[C@H](CO)NC(=O)[C@@H](NC(=O)[C@@H](N)[C@@H](C)O)[C@@H](C)O)C(=O)N[C@@H](CCCNC(=N)N)C(=O)N1CCC[C@H]1C(=O)N[C@@H](CCCNC(=N)N)C(=O)O` [CT-112, Thr-Thr-Ser-Gln-Val-Arg-Pro-Arg] (H-TTSQVRPR-OH), the “chemotactic migration of neutrophils to f-Met-Leu-Phe” value (neutrophils [1]) was “effectively inhibited”, the LTB4 (leukotriene B4 (LTB4)) was 16.8 ± 11.5(5) pg in peritoneal lavage and the “Thickness Difference (Left-Right)” value ([2]; 7-day pump, 60 mg CT-112/kg/24 hr) was 0.00087 ± 0.000398 in. For the same compound, the “Thickness Difference (Left-Right)” value ([2]; ip 60 mg/kg/injection at 3, 1, 0.25 hr prior and 3, 6, 21 hr post-challenge) was 0.00169 ± 0.000643 in, the “Thickness Difference (Left-Right)” value ([2]; topical, 20 mg/ml in DMSO, 50 µl at 3, 1, 0.25 hr prior and 3, 6, 21 hr post-challenge) was 0.0035 ± 0.000408 in and the “cytotoxicity to neutrophils, viability” value (neutrophils [3]) was “not cytotoxic”. For the same compound, the micronuclei [4] was “did not induce a significant increase”, the lesions at necropsy (acute toxicity in rats) was “No lesions were visible” and the “mean body weight or mean body weight gain” value (acute toxicity in rats; control vs treated) was “no statistical differences”. The clinical effects (acute toxicity in rats; several rats at 500 and 1,000 mg/kg, day of treatment) was “Transient clinical effects (hypoactivity, hypersensitiviy, staggered gait, cyanosis and absence of righting reflex)”, the “Myeloperoxidase Activity” value ([5]; 0.05 mg/animal/day) was 19.6 ± 15.6 µmole of chromophore formed/min and the “Myeloperoxidase Activity” value ([5]; 0.1 mg/animal/day) was 17.0 ± 9.6 µmole of chromophore formed/min. For the same compound, the “Myeloperoxidase Activity” value ([5]; 1.0 mg/animal/day) was 14.7 ± 13.3 µmole of chromophore formed/min and the PGE2 (prostaglandin E2 (PGE2)) was 13.1 ± 6.9(5) pg in peritoneal lavage.
